Where “and” joins values, the source holds several entries; their conditions need not be identical. Equal entries are not always repeated.
How the values were obtained:
[1] = test system: bleomycin-induced pulmonary fibrosis; test: Bleomycin-induced pulmonary fibrosis in mice: body weight, lung weight, lung index; format: in vivo; details: for Pulmonary index: lung weight/body weight×100
Method: Specific pathogen-free ICR mice (males) (body weights 18-22 g) were purchased from the BioLASCO Taiwan Co., Ltd. (Taipei, Taiwan). The animals were housed in Plexiglas cages at a constant temperature of 22±1° C. and a relative humidity of 55±5% on a 12 h dark-light cycle for at least 2 weeks before the experiment. Animals were provided food and water ad libitum. All experimental procedures were performed according to the guidelines of the Institutional Animal Ethics Committee, and the protocol was approved by the Committee for the Purpose of Control and Supervision of Experiments on Animals.
(§1) Mice were divided into fifth groups with 5 animals per group according to body weight: control group, BLM group, BLM+DEX group (7.5 mg/kg), BLM+ACH dosage group (50 mg/kg), and BLM+ACM dosage group (25 mg/kg), BLM+ACH dosage group (50 mg/kg), and BLM+ACM dosage group (25 mg/kg) BLM+AH dosage group (50 mg/kg), and BLM+AM dosage group (25 mg/kg) BLM+BH dosage group (50 mg/kg), and BLM+BM dosage group (25 mg/kg) BLM+CH dosage group (50 mg/kg), and BLM+CM dosage group (25 mg/kg) BLM+DH dosage group (50 mg/kg), and BLM+DM dosage group (25 mg/kg) BLM+EH dosage group (50 mg/kg), and BLM+EM dosage group (25 mg/kg) BLM. Pulmonary fibrosis (PF) was established in mice via a single intratracheal administration of BLM at 7.5 mg/kg mg/kg body weight. Different doses of samples were intragastrically administered daily for 21 days after BLM injury, and DEX was used as the positive control. Control and model groups received an equal volume of vehicle (0.9% NaCl) using the same schedule and route of administration.
Mouse body weights were recorded daily. Mice were sacrificed on the 21th day using excess chloral hydrate hydrochloride anesthesia. Blood was obtained for ELISA analyses, and whole lungs were removed and weighed. The right lungs were fixed in 10% formalin, dehydrated, and embedded in paraffin. The left lungs were used to determine hydroxyproline. The pulmonary coefficient was calculated using the following equation: lung weight/body weight×100% […]
At the end point of the entire experiment, the animal's body weight and lung weight were recorded.

[2] = test system: bleomycin-induced pulmonary fibrosis; test: Bleomycin-induced pulmonary fibrosis: hydroxyproline content in lung tissue; format: in vivo, mice; details: 50 mg/kg (high-dose groups); p<0.001
Method: as §1
(§2) 1. Group I: control; 2. Group II: mice received single intraperitoneal injection of BLM (7.5 mg/kg BW) 3. Group III: single dose (ACH, 0.5 g/kg) 4. Group IV: Single dose (ACM, 1.0 g/kg) 5. […] Group VII: purified AR101-DS2 (50 mg/kg) 8. Group VIII: purified AR101-DS2 (25 mg/kg) 7. Group VII: purified AR101-DS4 (50 mg/kg) 8. Group VIII: purified AR101-DS4 (25 mg/kg) 7. […] Group VII: purified ARH013-RA1 (50 mg/kg) 8. Group VIII: purified ARH013-RA1 (25 mg/kg)

MPO = test: Bleomycin-induced pulmonary fibrosis: lung myeloperoxidase (MPO) assay; format: in vivo, mice; details: 50 mg/kg (high-dose groups); vs BLM group p<0.001
Method: as §1, §2
The lung tissues were homogenized and the MPO levels were detected with the kits according to manufacturer's instruction.

[3] = test system: TNF-α, IL-1β, IL-6 and TGF-β; test: Bleomycin-induced pulmonary fibrosis: pro-inflammatory cytokines (ELISA); format: in vivo, mice; details: 50 mg/kg (high-dose groups); serum (FIG. 35 legend: BALF); p<0.001
Method: as §1
1. Group I: control; 2. […]
The serum concentration of the pro-inflammatory cytokines (i.e. tumor necrosis factor-α (TNF-α), interleukin-6 (IL-6), and IL-1β) in serum were assessed with relevant enzyme-linked immunosorbent assay (ELISA) kits (Biosource International Inc., Sunnyvale, Calif., USA), based on the manufacturer's instructions. […]

[4] = test system: bleomycin-induced pulmonary fibrosis; test: Bleomycin-induced pulmonary fibrosis: lung histopathology (H&E, Masson's trichrome); format: in vivo, mice; details: 50 mg/kg (high-dose groups)
Method: as §1
1. Group I: control; 2. Group II: mice received single intraperitoneal injection of BLM (7.5 mg/kg BW) 3. Group III: single dose (ACH, 0.5 g/kg) 4. Group IV: Single dose (ACM, 1.0 g/kg) 5. […] Group VII: purified AR101-DS2 (50 mg/kg) 8. Group VIII: purified AR101-DS2 (25 mg/kg) 7. Group VII: purified AR101-DS4 (50 mg/kg) 8. Group VIII: purified AR101-DS4 (25 mg/kg) 7. […]

[5] = test system: cisplatin-induced renal injury; test: Mice model of cisplatin-induced renal injury: serum creatinine (CRE) and BUN; format: in vivo; details: compounds, dose not given, daily for 7 days; p<0.001 vs cisplatin group
Method: Determination of biochemical parameters Serum creatinine and serum urea are assessed using colorimetric kits according to manufacturer's instructions. Kits of the former markers are purchased from (HUMAN Diagnostics Worldwide, Magdeburg, Germany) with a chemical analyzer (Roche Diagnostics, Cobas Mira Plus, Rotkreuz, Switzerland).
Seven-to-eight-week-old male C57BL/6 mice are obtained from the BioLASCO Taiwan Co., Ltd. (Taipei, Taiwan). The animals are housed in Plexiglas cages at a constant temperature of 22±1° C. and a relative humidity of 55±5% on a 12 h dark-light cycle for at least 2 weeks before the experiment. Animals are provided food and water ad libitum. All experimental procedures are performed according to the guidelines of the Institutional Animal Ethics Committee, and the protocol is approved by the Committee for the Purpose of Control and Supervision of Experiments on Animals.
Renal fibrosis is induced via multiple injections of low-dose cisplatin. Intraperitoneal injections of cisplatin (5 mg/kg/injection; P4394, Sigma-Aldrich, St Louis, Mo.) are performed at 0, 1, and 3 weeks, for a total of 3 injections. Mice are sacrificed at 6 weeks after the first dose of cisplatin (n=6). To analyze the effects of samples, mice are given daily intraperitoneal injections for 7 days, starting from 4 weeks after first dose of cisplatin, and sacrificed at […] (n=6). […]

HepG2 cells = test: Oleic acid-induced steatosis in HepG2 cells (Oil Red O); format: cell-based, human; details: 6 h pre-treatment, then 0.5 mM OA for 24 h, OD 510 nm, at noncytotoxic concentration
Method: Oleic acid (OA) induced steatosis in HepG2 cells and may consider an in vitro model for human fatty liver disease. HepG2 cells were treated with different concentrations of oleic acid (OA) to induce steatosis. Intracellular lipid was stained by Oil Red O (ORO), and quantified by colorimetric assay. 0.5 mM OA was chosen for further studies (FIGS. 37 and 38). HepG2 cells were treated with test compounds ([…]) and incubated for 48 h (FIG. 39). HepG2 cells were seeded in 24-well plates and deprived from FBS for 24 h. These cells were then treated with different concentrations of test compounds for 6 h before induced with 0.5 mM OA for 24 h. Cells were gently washed with PBS and fixed using paraformaldehyde at RT, then stained with Oil Red (ORO) solution for 30 min at RT. ORO stain was extracted using pure isopropanol and the optical density was detected at 510 nm (FIG. 40).

[6] = test system: atherosclerosis and liver fibrosis in hypercholesterolemic rabbit; test: Hypercholesterolemic rabbit model (0.5% cholesterol chow), liver histology scores; format: in vivo; details: 10 mg/kg in 0.5% cholesterol chow; individual liver slides, 12-week study
Method: 2 to 3 kg male, New Zealand White rabbits are individually caged and housed in temperature and humidity-controlled rooms. Light-dark cycles are 12 h each. After several days of acclimation, the animals are sequentially assigned to six feeding groups: standard rabbit chow, standard rabbit chow containing 0.5% cholesterol, standard rabbit chow containing both 0.5% cholesterol and 10 mg/kg Lovastatin, standard rabbit chow containing both 0.5% cholesterol and 1% ARH003, standard rabbit chow containing both 0.5% cholesterol and 1% ARH004, standard rabbit chow containing both 0.5% cholesterol and 10 mg/kg AR101-DS2. Except standard rabbit chow, others groups are given standard rabbit chow containing 0.5% cholesterol for 4 weeks (see FIGS. 14-15). The daily feeding amount for each rabbit is 50 g/kg body weight per day. Diets are administered for 8 weeks, after the animals had adjusted to their new environment. At the beginning and end of the 12 weeks study, the rabbits are anesthetized by an intramuscular injection of Zoletil 50 (1 mL/kg) (Virbac Ltd., France), and blood samples are harvested. Finally, the aortas (from aortic arch to the bifurcation of the iliac arteries) and whole livers are collected from the rabbits after they are sacrificed for further histopathological analyses.
(ND) standard rabbit chow, n=5; (HF) standard rabbit chow containing 0.5% cholesterol, n=6; (L) standard rabbit chow containing both 0.5% cholesterol and 10 mg/kg Lovastatin, n=4; (AR003) standard rabbit chow containing both 0.5% cholesterol and 1% ARH003, n=5; (AR004) standard rabbit chow containing both 0.5% cholesterol and 1% ARH004, n=5; (AR101-DS2) standard rabbit chow containing both 0.5% cholesterol and 10 mg/kg AR101-DS2, n=5; The daily feeding amount for each rabbit is 50 g/kg body weight per day.
The rabbit liver tissues (shown in FIG. 29) are perfused with normal saline and fixed in 10% (v/v) formalin-neutralized solution (J.T. Baker, Inc., USA) for 24 hr. […] Briefly, the slices are washed with pure water for 1 min to remove the OCT compound, washed with 50% (v/v) ethanol for 30 sec, and then stained with 2% (w/v) Sudan IV for 1 hr. After further washing with 50% (v/v) ethanol and pure water for 2 min, the slices are counterstained with hematoxylin. Photographs shown in FIG. 30 are acquired using a microscope equipped with a 10-fold magnification objective and quantified on an Alpha Imager 2200 documentation system (Alpha Innotech, USA). […]

[7] = 25 mg/kg intragastric daily for 21 days after BLM
[8] = 50 mg/kg intragastric daily for 21 days after BLM
[9] = DEX 7.5 mg/kg daily for 21 days after BLM

Compound | Final body mass [1, 7] | Pulmonary mass [1, 7] | Final body mass [1, 8] | Pulmonary mass [1, 8] | hydroxyproline (HP) content in lung tissue [2] | lung MPO activities (MPO) | TNF-α, IL-1β, IL-6 and TGF-β production after BLM challenge [3] | necrosis and inflammatory infiltrating cells in the lung tissue [4] | Score of Inflammation [6] | Score of Steatosis Grade [6] | also measured
C=C(CC[C@@H](C)[C@H]1CC[C@H]2C3=C(C(=O)C[C@]12C)[C@@]1(C)CC[C@@H](O)[C@](C)(O)[C@@H]1C[C@@H]3O)[C@@H](C)C(=O)O (racemic) [AR101-DS1, RS-Antcin K] | 36.45 ± 0.28 g | 0.52 ± 0.01 g | 39.02 ± 0.37 g | 0.46 ± 0.01 g | reduced | evidently suppressed |  |  |  |  | 
C=C1C(=O)O[C@@H]2/C=C(\C)C[C@H]3C=C(CC/C=C(\C)CC[C@@H]12)C(=O)O3 [AR100-DS1, Ovatodiolide] |  |  |  |  | reduced | evidently suppressed | improved | significantly improved |  |  | 
C=C(CC[C@@H](C(=O)O)[C@H]1CC[C@@]2(C)C3=CC[C@H]4C(C)(C)[C@@H](O)CC[C@]4(C)C3=CC[C@]12C)C(C)C [AR101-DS4, Dehydroeburicoic Acid] | 36.44 ± 0.28 g | 0.52 ± 0.01 g | 37.47 ± 0.22 g | 0.49 ± 0.01 g |  |  |  |  |  |  | renal protection effect (normalization of serum CRE and BUN) [5]: significant renal protection effect; Pulmonary index [1, 7]: 1.54 ± 0.04; Pulmonary index [1, 8]: 1.31 ± 0.01; OA-induced steatosis in HepG2 cells (HepG2 cells): inhibition
C[C@@H]1C[C@H]2[C@@H]3CCC4=CC(=O)C=C[C@]4(C)[C@@]3(F)[C@@H](O)C[C@]2(C)[C@@]1(O)C(=O)CO [DEX, Dexamethasone, reference compound] |  |  |  |  |  |  |  |  |  |  | Final body mass [1, 9]: 38.50 ± 0.22 g; Pulmonary mass [1, 9]: 0.42 ± 0.01 g; Pulmonary index [1, 9]: 1.09 ± 0.02
CC[C@H](C)C(=O)O[C@H]1C[C@@H](C)C=C2C=C[C@H](C)[C@H](CC[C@@H]3C[C@@H](O)CC(=O)O3)[C@H]21 [L, Lovastatin, reference compound] |  |  |  |  |  |  |  |  | 1 (1′: mild, 2 foci per 200 field) and 2 (2′: moderate, 2-4 foci per 200 field) | 2 (2′: 33-66%) (2×) and 0 (0′: low- to medium-power evaluation of parenchymal involvement <5%) | 
Dehydrosulphurenic acid/Sulphurenic acid [AR101-DS2] |  |  |  |  | reduced | evidently suppressed | improved | significantly improved | 1 (1′: mild, 2 foci per 200 field) (2×) and 2 (2′: moderate, 2-4 foci per 200 field) | 3 (3′: >66%) (2×) and 1 (1′: 5-33 %) | Pulmonary index ([1]; 50 mg/kg intragastric daily for 21 days after BLM, listed as BH): significant decrease
